Columns and labels:
Type in all cases: in vivo
Podosphaera leucotricha = assay: Podosphaera test (apple)/protective; settings: protective, application rate 50 g/ha, evaluation 10 days after inoculation, 100% = no infection
Protocol: (§1) Podosphaera test (apple)/protective Solvent: 47 parts by weight of acetone Emulsifier: 3 parts by weight of alkylaryl polyglycol ether To product a suitable preparation of active compound, 1 part by weight of active compound is mixed with the stated amounts of solvent and emulsifier, and the concentrate is diluted with water to the desired concentration. To test for protective activity, young plants are sprayed with the preparation of active compound at the stated application rate. After the spray coating has dried on, the plants are inoculated with an aqueous spore suspension of the causative organism of apple mildew Podosphaera leucotricha. The plants are then placed in a greenhouse at 23° C. and at a relative atmospheric humidity of approximately 75%.

[1] = system: Erysiphe graminis f.sp. hordei; assay: Erysiphe test (barley)/curative; settings: curative, sprayed 48 hours after inoculation, application rate 250 g/ha, evaluation 7 days after inoculation, 100% = no infection
Protocol: Erysiphe Test (barley)/curative Solvent: 10 parts by weight of N-methyl-pyrrolidone Emulsifier: 0.6 parts by weight of alkylaryl polyglycol ether To product a suitable preparation of active compound 1 part by weight of active compound is mixed with the stated amounts of solvent and emulsifier, and the concentrate is diluted with water to the desired concentration. To test for curative activity, young plants are dusted with spores of Erysiphe graminis f.sp. hordei. 48 hours after the incubation, the plants are sprayed with the preparation of active compound at the stated application rate. The plants are placed in a greenhouse at a temperature of approximately 20° C. and a relative atmospheric humidity of approximately 80%, in order to promote the development of mildew pustules.

Venturia inaequalis = assay: Venturia test (apple)/protective; settings: protective, application rate 50 g/ha, evaluation 12 days after inoculation, 100% = no infection
Protocol: as §1, with “Venturia” for “Podosphaera”, “produce” for “product”, “conidia” for “spore”, “scab Venturia inaequalis and then remain placed at 20° C. and a relative atmospheric humidity of approximately 70% for 1 day.” for “mildew Podosphaera leucotricha.”, “20°” for “23°”, “70%.” for “75%.”

Fusarium graminearum = settings: barley, protective, application rate 250 g/ha, evaluation 4 days after inoculation; 100% = no infection
Sphaerotheca fuliginea = assay: Sphaerotheca test (cucumber)/protective; settings: protective, application rate 50 g/ha, evaluation 10 days after inoculation, 100% = no infection
Protocol: as §1, with “Sphaerotheca” for “Podosphaera”, “(cucumber/protective” for “(apple)/protective”, “produce” for “product”, “Sphaerotheca fuliginea.” for “the causative organism of apple mildew Podosphaera leucotricha.”, “subsequently” for “then”, “23 to 24°” for “23°”

[2] = system: Erysiphe graminis f.sp. tritci; assay: Erysiphe test (wheat)/protective; settings: protective, application rate 250 g/ha, evaluation 7 days after inoculation, 100% = no infection
Protocol: Erysiphe test (wheat)/protective Solvent: 10 parts by weight of N-methyl-pyrrolidone Emulsifier: 0.6 parts by weight of alkylaryl polyglycol ether To prepare a suitable preparation of active compound, 1 part by weight of active compound is mixed with the stated amounts of solvent and emulsifier, and the concentrate is diluted with water to the desired concentration. To test for protective activity, young plants are sprayed with the preparation of active compound at the stated application rate. After the spray coating has dried on, the plants are dusted with spores of Erysiphe graminis […]. The plants are placed in a greenhouse at a temperature of approximately 20° C. and a relative atmospheric humidity of approximately 80%, in order to promote the development of mildew pustules.

Puccinia recondita = assay: Puccinia test (wheat)/curative; settings: curative, sprayed 48 hours after inoculation, application rate 250 g/ha, evaluation 10 days after inoculation, 100% = no infection
Protocol: Puccinia test (wheat/curative Solvent: 10 parts by weight of N-methyl-pyrrolidone Emulsifier: 0.6 part by weight of alkylaryl polyglycol ether To product a suitable preparation of active compound, 1 part by weight of active compound is mixed with the stated amounts of solvent and emulsifier, and the concentrate is diluted with water to the desired concentration. […] 48 hours after the inoculation the plants are sprayed with the preparation of active compound at the stated application rate. The plants are placed in a greenhouse at a temperature of approximately 20° C. and a relative atmospheric humidity of approximately 80%, in order to promote the development of rust pustules.

[3] = system: Erysiphe graminis f.sp. hordei; assay: Erysiphe test (barley)/protective; settings: protective, application rate 250 g/ha, evaluation 7 days after inoculation, 100% = no infection
Protocol: Erysiphe test (barley)/protective Solvent: 10 parts by weight of N-methyl-pyrrolidone Emulsifier: 0.6 parts by weight of alkylaryl polyglycol ether To prepare a suitable preparation of active compound, 1 part by weight of active compound if mixed with the stated amounts of solvent and emulsifier, and the concentrate is diluted with water to the desired concentration. To test for protective activity, young plants are sprayed with the preparation of active compound at the stated application rate. After the spray coating has dried on, the plants are dusted with spores of Erysiphe graminis f.sp. hordei. The plants are placed in a greenhouse at a temperature of approximately 20° C. and a relative atmospheric humidity of approximately 80%, in order to promote the development of mildew pustules.

[4] = system: W strain of Pseudocercosporella herpotrichoides; assay: Pseudocercosporella herpotrichoides test; W strain (wheat)/protective; settings: protective, application rate 250 g/ha, evaluation 21 days after inoculation, 100% = no infection
Protocol: Pseudocercosporella herpotrichoides test; W strain (wheat/protective Solvent: 10 parts by weight of N-methyl-pyrrolidone Emulsifier: 0.6 part by weight of alkylaryl polyglycol ether To product a suitable preparation of active compound, 1 part by weight of active compound is mixed with the stated amounts of solvent and emulsifier, and the concentrate is diluted with water to the desired concentration. To test for protective activity, young plants are sprayed with the preparation of active compound at the stated application rate. After the spray coating has dried on, the plants are inoculated at the base of the stem with spores of the W strain of Pseudocercosporella herpotrichoides. The plants are placed in a greenhouse at a temperature of approximately 10° C. and a relative atmospheric humidity of approximately 80%.

## OC(Cc1ccccc1Cl)(Cn1ncnc1SSc1ncnn1CC(O)(Cc1ccccc1Cl)C1(Cl)CC1)C1(Cl)CC1 (centres unmarked) [Example I-1, di-{1-[2-(1-chlorocyclopropyl)-3-(2-chloro-phenyl)-2-hydroxy-propyl-1]-1,2,4-triazol-5-yl} disulphide]
Podosphaera leucotricha
  Efficacy in %: 100%
[1]
  Efficacy in %: 100%
Venturia inaequalis
  Efficacy in %: 100%
Fusarium graminearum
  Efficacy in %: 100%
Sphaerotheca fuliginea
  Efficacy in %: 100%
[2]
  Efficacy in %: 100%
Puccinia recondita
  Efficacy in %: 100%
[3]
  Efficacy in %: 100%
[4]
  Efficacy in %: 100%

## Fc1ccc(C2(Cn3ncnc3SSc3ncnn3CC3(c4ccc(F)cc4)OC3c3ccccc3Cl)OC2c2ccccc2Cl)cc1 (centres unmarked) [Example I-2]
Podosphaera leucotricha
  Efficacy in %: 96%
Sphaerotheca fuliginea
  Efficacy in %: 92%

Source: patent publication US6420406B1, “Triazolyl disulphides” (Bayer Aktiengesellschaft, priority 1996, dated 2002)
